# Structures can show the parent of a compound that is named as a salt. Starred links: 1 amine or outer side, 2 acyl side, 3 side chain; linkers in the order of their positions; H or OH if unused. Positions of bridges follow the written chain, without caps; N, C: chain ends. Non-standard residues stand in square brackets, D forms with d. Residues, ends and D or L forms follow the SMILES beside them. Chains are numbered I, II in the order given. Actinocin(9to1) = Cc1c2oc3c(C)ccc(C(=O)[*:1])c3nc-2c(C(=O)[*:2])c(N)c1=O; NMeV = CN[C@H](C(=O)O)C(C)C; Sar = CNCC(=O)O
# Key:
# Swiss 3T3 fibroblasts = experiment: In vitro cytotoxicity assay on contact inhibited, non-dividing 3T3 fibroblasts (MTS); format: cell-based
# Description: Other toxicity assays may be used.
# Any compound killing 3T3 fibroblast cells was omitted from further studies.
# Contact inhibited Swiss 3T3 fibroblasts are purchased from ATCC.
# All compound dilutions are assayed in triplicate. […] Cells are returned to the incubator for 2 days.
# Media is added to blank wells for background calculations.
# Note that starting concentration of CsA was 1 μM.
# Solubility (statement) = format: physicochemical
# [1] = Sheep asthma model (Ascaris suum antigen challenge, specific lung resistance, PC400); format: in vivo
# Description: Briefly, transpulmonary pressure, pulmonary resistance (RL), specific lung resistance (SRL airway hyper reactivity, airway responsiveness, are determined.
# Venous blood samples (˜5 ml) are obtained from a peripheral leg vein or the jugular vein for pharmacokinetic data. Measurement of Airway Mechanics: The unsedated sheep are restrained in a cart in the prone position with their heads immobilized. After topical anesthesia of the nasal passages with 2% lidocaine solution, a balloon catheter is advanced through one nostril into the lower esophagus. The animals are […] with a cuffed endotracheal tube through the other nostril using a flexible fiberoptic bronchoscope as a guide. (The cuff of the endotracheal tube is inflated only for the measurement of airway mechanics and during aerosol challenges to prevent undue discomfort. This procedure has no effect on airway mechanics). Pleural pressure is estimated with the esophageal balloon catheter (filled with one ml of air) which is positioned 5–10 cm from the gastroesophageal junction. In this position the end expiratory pleural pressure ranges between −2 and −5 cm H2O. Once the balloon is placed, it is secured so that it remains in position for the duration of the experiment. Lateral pressure in the trachea is measured with a sidehole catheter (inner dimension, 2.5 mm) advanced through and positioned distal to the tip of the endotracheal tube. Transpulmonary pressure, the difference between tracheal and pleural pressure, is measured with a differential pressure transducer catheter system. […] The signals of flow and transpulmonary pressure is recorded on an oscilloscope recorder which is linked to a computer for on-line calculation of RL from transpulmonary pressure, respiratory volume (obtained by digital integration) and flow. […] Immediately after the measurement of RL, thoracic gas volume (Vtg) is measured in a constant volume body plethysmograph to obtain specific lung resistance (SRL=RL·Vtg) in L×cm H2O/LPS. […]
# [2] = Oral bioavailability (statement); format: in vivo
# [3] = 3 mg/kg aerosol 30 min before antigen challenge, 2 sheep (FIG. 3A)
Compound,melting point,further results
"CCOC(=O)c1c(Nc2ccncc2)c2ccc(Cl)cc2n1C [Example 27, 6-Chloro-1-methyl-3-(4-pyridinylamino)-1H-indole-2-carboxylic ethyl ester]",154 to 155 °C,–
"CCOC(=O)c1c(Nc2ccncc2)c2ccc(Cl)cc2n1CC(=O)N(CC)CC [Example 34, 6-Chloro-1-diethylcarbamoylmethyl-3-(pyridin-4-ylamino)-1H-indole-2-carboxylic acid ethyl ester]",212 to 214 °C,–
Cn1c(C(=O)O)c(Nc2ccncc2)c2ccccc21.O=C(O)/C=C\C(=O)O,192 to 194 °C (dec.),–
C[C@@H]1C[C@H]2[C@@H]3CCC4=CC(=O)C=C[C@]4(C)[C@@]3(F)[C@@H](O)C[C@]2(C)[C@@]1(O)C(=O)CO [Dexamethasone],–,"viability of quiescent 3T3 cells, % control (Swiss 3T3 fibroblasts; mouse, 2 days, 0.001 μM): 100.0 % control"
"O=C(Nc1c(C(=O)O)[nH]c2cc(Cl)cc(Cl)c12)c1ccccc1Cc1ccccc1 [Example 87, 3-((2-Benzylbenzoyl)amino)-4,6-dichloro-1H-indole-2-carboxylic acid]",234 to 235 °C,–
"CN(C(=O)c1cccc(F)c1)c1c(C(=O)O)[nH]c2cc(Cl)cc(Cl)c12 [Example 88, 3-((3-Fluorobenzoyl)methylamino)-4,6-dichloro-1H-indole-2-carboxylic acid]",270 to 280 °C,–
CN(Cc1cnc2nc(N)nc(N)c2n1)c1ccc(C(=O)N[C@@H](CCC(=O)O)C(=O)O)cc1 [Methotrexate],–,"viability of quiescent 3T3 cells, % control (Swiss 3T3 fibroblasts; mouse, 2 days, 0.03 μM): 100.0 % control"
"CN(C(=O)c1ccc(Cl)cc1)c1c(C(=O)O)[nH]c2cc(Cl)cc(Cl)c12 [Example 80, 3-((4-chlorobenzoyl)methylamino)-4,6-dichloro-1H-indole-2-carboxylic acid]",279 to 283 °C,–
"Cc1c2oc3c(C)ccc(C(=O)N[C@@H]4C(=O)N[C@H](C(C)C)C(=O)N5CCC[C@H]5C(=O)N(C)CC(=O)N(C)[C@@H](C(C)C)C(=O)O[C@@H]4C)c3nc-2c(C(=O)N[C@@H]2C(=O)N[C@H](C(C)C)C(=O)N3CCC[C@H]3C(=O)N(C)CC(=O)N(C)[C@@H](C(C)C)C(=O)O[C@@H]2C)c(N)c1=O [Actinomycin D] (I: T[dV]P[Sar][NMeV] / II: T[dV]P[Sar][NMeV]; ester I:1-I:C, II:1-II:C; linker I:N-II:N via Actinocin(9to1))",–,"viability of quiescent 3T3 cells, % control (Swiss 3T3 fibroblasts; 0.001 μM, 2 day incubation): 79.0 % control; toxic effects on quiescent 3T3 cells (in words) (Swiss 3T3 fibroblasts; non-dividing 3T3 cells): effected the viability"
"O=C(O)c1[nH]c2ccccc2c1Nc1ccncc1 [Example 28, 3-(4-Pyridinylamino)-1H-indole-2-carboxylic acid]",–,"solubility (in words) (Solubility (statement)): relatively low solubility; antigen-induced early bronchial response: acute increase in specific lung resistance (SRL) [1, 3]: did not affect; antigen-induced late bronchial response (SRL) [1, 3]: blocked the late response; post challenge airway responsiveness (decrease of PC400 after antigen challenge) ([1]; 3 mg/kg, 2 sheep (FIG. 3B)): prevented this effect; oral bioavailability (in words) [2]: low oral bioavailability"
"Cn1c(C(=O)O)c(Nc2ccncc2)c2c(F)cccc21 (as salt: trifluoroacetate) [Example 31, 4-Fluoro-1-Methyl-3-(4-pyridinylamino)-1H-indole-2-carboxylic acid Trifluoroacetate Salt]",197 to 199 °C,–
"CC(C)(C)OC(=O)c1[nH]c2cccc(F)c2c1Nc1ccncc1 [Example 17, 4-fluoro-3-(4-pyridinylamino)-1H-indole-2-carboxylic tert-butyl ester]",210 to 212 °C,–

# Continued, in another order:
melting point,Compound,further results
230 °C (dec.),"NC(=O)c1[nH]c2ccccc2c1Nc1ccncc1 [Example 128, 3-(Pyridin-4-ylamino)-1H-indole-2-carboxamide]",–
211 to 213 °C,COc1ccc2[nH]c(C(=O)O)c(Nc3ccncc3)c2c1 (as salt: trifluoroacetate),–
231 to 234 °C (dec.),O=C(O)c1[nH]c2cccc(F)c2c1Nc1ccncc1 (as salt: trifluoroacetate),–
217 to 219 °C,"COc1ccc2[nH]c(C(=O)OC(C)(C)C)c(Nc3ccncc3)c2c1 [Example 21, 5-methoxy-3-(4-pyridinylamino)-1H-indole-2-carboxylic tert-butyl ester]",–

# — patent US7169925B2, “Indole derivatives as interleukin-4 gene expression inhibitors” (Aventis Pharmaceuticals Inc., priority 2002, dated 2007)
